Assay results taken from US6737383B1, “Herbicidal oxadiazolidines” (priority 1999, dated 2004).

Columns and labels:
[1] = tested on: blackgrass; test: Test B pre/postemergence blackgrass; type: in vivo, Alopecurus myosuroides
Method in brief: (§1)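 Response is a visual 0-to-10 score relative to untreated plants, where 0 means no effect and 10 means complete control, taken twelve to sixteen days after application. Treatments went onto soil at planting and onto foliage of 1- to 4-leaf plants, using a surfactant-containing non-phytotoxic solvent.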

[2] = tested on: surinam grass; test: Test B pre/postemergence surinam grass; type: in vivo, Brachiaria decumbens
Method in brief: as §1

[3] = tested on: cocklebur; test: Test B pre/postemergence cocklebur; type: in vivo, Xanthium strumarium
Method in brief: as §1

[4] = tested on: corn; test: Test B pre/postemergence corn; type: in vivo, Zea mays
Method in brief: as §1

[5] = tested on: crabgrass; test: Test B pre/postemergence crabgrass; type: in vivo, Digitaria sanguinalis
Method in brief: as §1

[6] = tested on: giant foxtail; test: Test B pre/postemergence giant foxtail; type: in vivo, Setaria faberii
Method in brief: as §1

[7] = tested on: pigweed; test: Test B pre/postemergence pigweed; type: in vivo, Amaranthus retroflexus
Method in brief: as §1

[8] = tested on: rape; test: Test B pre/postemergence rape; type: in vivo, Brassica napus
Method in brief: as §1

[9] = tested on: soybean; test: Test B pre/postemergence soybean; type: in vivo, Glycine max
Method in brief: as §1

[10] = tested on: sugar beet; test: Test B pre/postemergence sugar beet; type: in vivo, Beta vulgaris
Method in brief: as §1

[11] = tested on: wheat; test: Test B pre/postemergence wheat; type: in vivo, Triticum aestivum
Method in brief: as §1

[12] = tested on: purple nutsedge; test: Test B pre/postemergence purple nutsedge; type: in vivo, Cyperus rotundus
Method in brief: as §1

[13] = tested on: rice; test: Test B flood test rice; type: in vivo, Oryza sativa
Method in brief: (§2)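 Each value is a visual injury score relative to controls, with 10 meaning complete control and 0 no effect. Evaluation took place twelve to sixteen days after the 2-leaf-stage plants were treated and kept in the greenhouse.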

[14] = tested on: smallflower flatsedge; test: Test B flood test smallflower flatsedge; type: in vivo, Cyperus difformis
Method in brief: as §2

[15] = tested on: duck salad; test: Test B flood test duck salad; type: in vivo, Heteranthera limosa
Method in brief: as §2

[16] = tested on: bamyardgrass; test: Test B flood test barnyardgrass; type: in vivo, Echinochloa crus-galli
Method in brief: as §2

[17] = Postemergence, Rate 125 g/ha, scale of 0 to 10 where 0 is no effect and 10 is complete control
[18] = Preemergence, Rate 62 g/ha, scale 0 to 10 (0 no effect, 10 complete control)
[19] = Preemergence, Rate 125 g/ha, 0 is no effect, 10 is complete control
[20] = Preemergence, Rate 250 g/ha, scale 0 to 10, 0 is no effect, 10 is complete control
[21] = Preemergence, Rate 500 g/ha, scale 0 to 10 (0 no effect, 10 complete control)
[22] = Rate 62 g/ha, Postemergence, scale of 0 to 10 where 0 is no effect and 10 is complete control
[23] = Rate 250 g/ha, Postemergence, scale 0 to 10, 0 is no effect, 10 is complete control
[24] = Rate 500 g/ha, Postemergence, scale 0 to 10
[25] = Postemergence, Rate 1000 g/ha, scale 0 to 10 (0 no effect, 10 complete control)
[26] = Rate 250 g/ha, Postemergence (flood test), scale 0 to 10, 0 is no effect, 10 is complete control
[27] = Rate 500 g/ha, listed under Postemergence (flood test species), scale 0 to 10
[28] = Rate 2000 g/ha, Postemergence, scale 0 to 10

Cc1nsc(C)c1-n1c(=O)on(C(=O)N(c2ccc(F)cc2)C(C)C)c1=O [Compound 157]
6: Crabgrass plant response rating [5, 21] | Giant foxtail plant response rating (0 to 10 scale) [6, 19]
0: Blackgrass plant response rating [1, 17] | Blackgrass plant response rating [1, 18] | Blackgrass plant response rating (0 to 10 scale) [1, 19] | Blackgrass plant response rating [1, 22] | Plant response rating, Blackgrass [1, 23] | B. signalgrass plant response rating [2, 17] | B. signalgrass plant response rating [2, 18] | B. signalgrass plant response rating (0 to 10 scale) [2, 19] | B. signalgrass plant response rating [2, 20] | B. signalgrass plant response rating [2, 21] | B. signalgrass plant response rating [2, 22] | Plant response rating, B. signalgrass [2, 23] | B. signalgrass plant response rating ([2]; Rate 500 g/ha, Postemergence, scale 0 to 10, 0 no effect, 10 complete control) | Cocklebur plant response rating [3, 17] | Cocklebur plant response rating [3, 18] | Cocklebur plant response rating (0 to 10 scale) [3, 19] | Cocklebur plant response rating [3, 20] | Cocklebur plant response rating [3, 21] | Cocklebur plant response rating [3, 22] | Plant response rating, Cocklebur [3, 23] | Cocklebur plant response rating [3, 24] | Corn plant response rating [4, 17] | Corn plant response rating [4, 18] | Corn plant response rating (0 to 10 scale) [4, 19] | Corn plant response rating [4, 20] | Corn plant response rating [4, 21] | Corn plant response rating [4, 22] | Plant response rating, Corn [4, 23] | Corn plant response rating [4, 24] | Crabgrass plant response rating [5, 17] | Crabgrass plant response rating [5, 18] | Crabgrass plant response rating [5, 22] | Giant foxtail plant response rating [6, 22] | Redroot pigweed plant response rating [7, 17] | Redroot pigweed plant response rating [7, 18] | Redroot pigweed plant response rating (0 to 10 scale) [7, 19] | Redroot pigweed plant response rating [7, 20] | Redroot pigweed plant response rating [7, 21] | Redroot pigweed plant response rating [7, 22] | Plant response rating, Redroot pigweed [7, 23] | Redroot pigweed plant response rating [7, 24] | Rape plant response rating [8, 17] | Rape plant response rating [8, 18] | Rape plant response rating (0 to 10 scale) [8, 19] | Rape plant response rating [8, 20] | Rape plant response rating [8, 21] | Rape plant response rating [8, 22] | Plant response rating, Rape [8, 23] | Rape plant response rating [8, 24] | Soybean plant response rating [9, 18] | Soybean plant response rating (0 to 10 scale) [9, 19] | Soybean plant response rating [9, 20] | Soybean plant response rating [9, 21] | Soybean plant response rating [9, 22] | Sugarbeets plant response rating [10, 17] | Sugarbeets plant response rating [10, 18] | Sugarbeets plant response rating (0 to 10 scale) [10, 19] | Sugarbeets plant response rating [10, 20] | Sugarbeets plant response rating [10, 21] | Sugarbeets plant response rating [10, 22] | Plant response rating, Sugarbeets [10, 23] | Sugarbeets plant response rating [10, 24] | Wheat plant response rating [11, 18] | Wheat plant response rating (0 to 10 scale) [11, 19] | Wheat plant response rating [11, 20] | Wheat plant response rating [11, 21] | Plant response rating, Wheat [11, 23] | Wheat plant response rating [11, 24] | Nutsedge plant response rating [12, 17] | Nutsedge plant response rating [12, 18] | Nutsedge plant response rating (0 to 10 scale) [12, 19] | Nutsedge plant response rating [12, 20] | Nutsedge plant response rating [12, 21] | Nutsedge plant response rating [12, 22] | Plant response rating, Nutsedge [12, 23] | Nutsedge plant response rating [12, 24] | Rice plant response rating [13, 25] | Plant response rating, Rice [13, 26] | Rice plant response rating [13, 27] | Rice plant response rating [13, 28] | S. Flatsedge plant response rating [14, 25] | Plant response rating, S. Flatsedge [14, 26] | S. Flatsedge plant response rating [14, 27] | S. Flatsedge plant response rating [14, 28] | Ducksalad plant response rating [15, 25] | Plant response rating, Ducksalad [15, 26] | Ducksalad plant response rating [15, 27] | Ducksalad plant response rating [15, 28] | Barnyardgrass plant response rating [16, 25] | Plant response rating, Barnyardgrass [16, 26] | Barnyardgrass plant response rating [16, 27] | Barnyardgrass plant response rating [16, 28]
1: Giant foxtail plant response rating [6, 17] | Soybean plant response rating [9, 17] | Plant response rating, Soybean [9, 23]
7: Crabgrass plant response rating [5, 24]
8: Giant foxtail plant response rating [6, 20]
3: Giant foxtail plant response rating [6, 18]
4: Crabgrass plant response rating [5, 20] | Plant response rating, Giant foxtail [6, 23] | Giant foxtail plant response rating [6, 24]
5: Blackgrass plant response rating [1, 20] | Blackgrass plant response rating [1, 21]
10: Giant foxtail plant response rating [6, 21]
2: Blackgrass plant response rating [1, 24] | Crabgrass plant response rating (0 to 10 scale) [5, 19] | Plant response rating, Crabgrass [5, 23] | Soybean plant response rating [9, 24]
